Values quoted from earlier work, collected in US11678659B2, “Use as rodenticides of compounds that inhibit blood coagulation” (priority 2014, dated 2023).

Legend:
thrombin receptor PAR-1 = target: T1, thrombin receptor PAR-1 (Homo sapiens, UniProt P25116)
T1 construct: endogenous in cells; host or cells: study subjects (in vivo), platelets
T1 sequence (P25116 22-425): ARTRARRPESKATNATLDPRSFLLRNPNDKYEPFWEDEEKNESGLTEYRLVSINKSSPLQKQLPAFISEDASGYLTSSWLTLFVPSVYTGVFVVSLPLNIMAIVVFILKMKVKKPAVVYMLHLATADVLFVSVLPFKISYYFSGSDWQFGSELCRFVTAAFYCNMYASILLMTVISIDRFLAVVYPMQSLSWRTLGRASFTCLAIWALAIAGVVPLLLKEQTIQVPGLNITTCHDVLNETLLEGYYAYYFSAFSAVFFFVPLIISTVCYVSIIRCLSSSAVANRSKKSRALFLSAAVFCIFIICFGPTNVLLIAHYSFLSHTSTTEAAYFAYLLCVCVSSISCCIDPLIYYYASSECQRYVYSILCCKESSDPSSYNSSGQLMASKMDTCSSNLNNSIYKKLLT

thrombin = target: T2, thrombin (Homo sapiens, UniProt P00734); details: administration for more than 35 days
T2 construct: from tissue; host or cells: blood of human subjects (in vivo)

Compound	bleedings observed (thrombin receptor PAR-1; one study)	liver enzymes (thrombin receptor PAR-1; two phase II studies)	liver toxicity (thrombin)
Br.CCOc1cc2c(c(F)c1OCC)C(=N)N(CC(=O)c1cc(N3CCOCC3)c(OC)c(C(C)(C)C)c1)C2 [Atopaxar, 1-(3-tert-butyl-4-methoxy-5-morpholin-4-yl-phenyl)-2-(5,6-diethoxy-4-fluoro-3-imino-1H-isoindol-2-yl)ethanone-hydrobromide]	not statistically significant	increase in liver enzymes	
CCOC(=O)CN[C@@H](C(=O)N1CC[C@H]1C(=O)NCc1ccc(/C(N)=N\O)cc1)C1CCCCC1 [ximelagatran]			risk of liver toxicity
